Reference: patent US20240189287A1, “PERIPHERALLY RESTRICTED CB1 RECEPTOR BLOCKERS AND USES THEREOF” (BIONANOSIM (BNS) LTD, priority 2021, published 2024)
“Also recorded” adds a separate entry of the source.

Experiments:
CB2 receptor = CB2 receptor (Homo sapiens (Human), UniProt P34972); assay: CB2 receptor radioligand binding assay, [3H]CP-55,940 displacement, human kidney membranes
Method: Radioligand binding assays: Binding affinity was determined by a radioligand binding assay. The different BB8-conjugates binding to CB1 and CB2 receptors was assessed in competition displacement assays using [^3H]CP-55.940 as the radioligand and crude membranes from mouse brain for CB1 receptor and human kidney cells for CB2 receptor.
CB2 receptor binding assay: Human kidney membranes were used as the source material for CB2 receptors. The displacement of specifically bound tritiated CP-55,940 from these membranes using a standard filtration assay was used to determine the Ki values for the test compounds. Briefly, 1.25 μg of protein was incubated for 1.5 h at 30° C. in the presence of 0.5 nM [^3H]CP-55,940 and various concentrations (10^−5M-10^−11M) of test compound/control, final volume of 1 mL. The incubation was terminated by rapid filtration and washing, and the amount of specifically bound [^3H]CP-55,940 was determined. Briefly, membranes with bound [^3H]CP-55,940 were separated and washed from free ligand by vacuum filtration, adsorbing the membrane onto a Whatman glass microfiber filter paper ([…], Cat #1821271). Finally, the Whatman filter paper with adsorbed membranes was cut and placed in scintillation liquid (Ultima Gold) for 1 h at 25° C. followed by a β counter reading of bound [^3H]CP-55,940 radioligand. All data were in triplicates with Ki values determined using GraphPad Prism 7.02 analysis software.

[1] = Pharmacokinetics after oral and IV dosing; assay type: in vivo, C57BL/6J mice; conditions: for Cmax: male, C57BL/6J, po
Method: Pharmacokinetics: Male C57BL/6J mice (7-9 weeks, N=3 in each group) were used in this study. Mice were fasted at least 12 hr prior to administration of test article and have access to food ad libitum 4 hr post dosing. Appropriate amount of test article was accurately weighted and mixed with the appropriate volume of vehicle to get a clear oral solution. The formulations were prepared on the day of dosing, and mice were dosed via either orally gavage or intravenous injection, up to 4 hr after formulations were prepared. About 30 μL blood per time point was collected from the saphenous vein followed by plasma preparation. Dose formulation and sample analysis was performed by LC-MS/MS method. Plasma concentration versus time data was analyzed by non-compartmental method.

mice [2] = assay: Catalepsy test (bar test), WIN55,212-induced; assay type: in vivo; conditions: single dose 20 mg/kg PO 30 min prior to WIN55,212 3 mg/kg IP
Method: Catalepsy test: Catalepsy was assayed using the bar test. Briefly, mice were removed from their home cage, and their forepaws were placed on a horizontal bar, 0.5 cm in diameter, positioned 4 cm above the bench surface. Vehicle-treated mice routinely let go of the bar within 2 sec. Cataleptic behavior was defined as the time the animals remained motionless holding on to the bar, with an arbitrary cutoff of 30 sec. The antagonists were given 30 min before the IP injection of 3 mg/kg WIN55,212. The test was performed 60 min after agonist administration.

mice [3] = assay: Elevated plus-maze, anxiety-related behavior; assay type: in vivo; conditions: single dose 20 mg/kg PO
Method: Elevated plus-maze: Anxiety-related behaviors were assessed using the EPM test as reported previously. Animals were placed on the 5×5 cm central platform of an apparatus from which four arms, 30 cm×5 cm extended. Two of the arms (the closed arms) are enclosed within 15 cm high walls, and the two other arms (the open arms) have 1 cm high rims. The whole maze is elevated 75 cm above the ground. During the 6 min test time, the number of entries to each arm type (closed or open arms, frequencies) and the time spent in each type of arm (closed or open arms, duration) during the test were measured.

CB1 receptor = CB1 receptor (Mus musculus (Mouse), UniProt P47746); assay: [35S]GTPγS binding assay for CB1 receptor, mouse brain membranes; assay type: biochemical; conditions: nature of binding: agonist/antagonist/inverse agonist
Method: For CB1 receptor-mouse brains were dissected and P2 membranes prepared and resuspended at ˜2 μg protein/μL in 1 ml assay buffer (50 mM Tris HCl, 9 mM MgCl2, 0.2 mM EDTA, 150 mM NaCl; pH 7.4). Ligand-stimulated [^35S]GTPγS binding was assayed as described previously (Tam et al., JCI 2010). Briefly, membranes (10 μg protein) were incubated in assay buffer containing 100 μM GDP, 0.05 nM [^35S]GTPγS, test compounds at various concentrations (CP55940/Rimonabant as controls and test compounds for BB8 conjugates), and 1.4 mg/mL fatty acid-free BSA in siliconized glass tubes. Membranes with bound ligand ([^35S]GTPγS) were separated from free ligand by vacuum filtration and were analyzed using β counter as described above. Non-specific binding was determined using 10 μM GTPS (cold GTP). Basal binding was assayed in the absence of the tested compound and in the presence of GDP.

[4] = mouse, plasma, oral administration of 10 and 20 mg/kg, C57BL/6J male mice

Chain of CB1 receptor (P47746 whole entry): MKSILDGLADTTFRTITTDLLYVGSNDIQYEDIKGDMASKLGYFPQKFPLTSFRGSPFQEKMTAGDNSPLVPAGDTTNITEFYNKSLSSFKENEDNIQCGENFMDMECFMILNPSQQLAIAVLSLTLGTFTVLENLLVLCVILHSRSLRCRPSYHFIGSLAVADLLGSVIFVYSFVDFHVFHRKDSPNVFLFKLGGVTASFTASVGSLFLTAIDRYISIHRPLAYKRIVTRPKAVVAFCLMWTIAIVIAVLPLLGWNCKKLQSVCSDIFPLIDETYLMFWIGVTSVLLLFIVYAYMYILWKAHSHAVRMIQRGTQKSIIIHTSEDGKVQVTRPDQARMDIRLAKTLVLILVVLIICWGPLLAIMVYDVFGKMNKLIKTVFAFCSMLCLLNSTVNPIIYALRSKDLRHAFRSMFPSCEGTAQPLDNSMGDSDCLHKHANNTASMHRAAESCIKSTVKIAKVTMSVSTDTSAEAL
Chain of CB2 receptor (P34972 whole entry): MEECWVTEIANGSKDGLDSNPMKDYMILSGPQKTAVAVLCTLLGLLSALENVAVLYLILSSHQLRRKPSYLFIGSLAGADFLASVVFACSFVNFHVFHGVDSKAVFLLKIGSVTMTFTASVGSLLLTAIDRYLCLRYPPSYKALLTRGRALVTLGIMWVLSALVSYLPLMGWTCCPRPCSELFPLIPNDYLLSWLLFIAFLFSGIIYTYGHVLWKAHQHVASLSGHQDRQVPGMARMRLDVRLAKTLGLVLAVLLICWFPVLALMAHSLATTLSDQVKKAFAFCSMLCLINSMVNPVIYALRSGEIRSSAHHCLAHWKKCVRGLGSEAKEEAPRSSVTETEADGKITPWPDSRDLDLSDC

In the case of `Cc1ccc(C)c(OCCCC(C)(C)C(=O)NC2CCCOc3c2nn(-c2ccccc2Cl)c3-c2ccc(Cl)cc2)c1` (centres unmarked) [BNS822, N-[2-(2-chlorophenyl)-3-(4-chlorophenyl)-5,6,7,8-tetrahydrooxepino[3,2-c]pyrazol-8-yl]-5-(2,5-dimethylphenoxy)-2,2-dimethyl-pentanamide], the “hCB2R Ki (nM)” value (CB2 receptor) is reported as “No binding”, the “Oral bioavail (%)” value ([1]; absolute, oral 10 and 20 mg/kg vs IV 1 mg/kg, C57BL/6J male mice) is reported as 8.62-10.59% and the Cmax ([1]; mouse, plasma, 10 mg/kg, oral 10 mg/kg, mice) is reported as 283 ng/mL. For the same compound, the Cmax ([1]; mouse, plasma, 20 mg/kg, oral 20 mg/kg, mice) was 811 ng/mL, the Cmax ([1]; mouse, plasma, 20 mg/kg, oral administration of 10 and 20 mg/kg (range over both doses), C57BL/6J male mice) was 283 to 811 ng/mL and the Tmax [1, 4] was 2 h. For the same compound, the half-life [1, 4] was 5.2 h, the “T1/2” value ([1]; oral administration of 10 and 20 mg/kg, C57BL/6J male mice) was 5.2 h and the “WIN55,212-induced catalepsy” value (mice [2]) was “did not block; also recorded: no effect”. The “anxiogenic behavior in the Elevated Plus Maze” value (mice [3]) was “nor did it induce a robust anxiogenic response; also recorded: no anxiogenic effect” and the “mCB1R GTPγ[^35S] (activity)” value (CB1 receptor) was “Antagonist”.
